Measurements published in patent publication US10934277B2, “Enantiomerically purified GPER agonist for use in treating disease states and conditions” (Linnaeus Therapeutics, Inc., priority 2018, dated 2021).
Converted amounts (≈) assume the structure as drawn. “And” between values parts separate entries of the source, which are not always exact repeats. Identical values can stand only once. Values belong to the molecule of their own block, whether it stands above or below them.

Experiments:
[1] = system: YUMM1.7 melanoma cells; assay: YUMM1.7 proliferation assay (4 day growth); type: cell-based; conditions: 500 nM
Method: YUMM1.7 cells were cultured for at least 1 passage after thawing and were cultured in DMEM with 5% FBS (Invitrogen) and 1% antibiotic-antimycotic (gibco) at 37C 5% CO2. Proliferation assays were performed by plating 15,000 cells in 12-well plates with 5 replicates per condition tested. Media and drugs were refreshed on Day 2. On Day 4, cells were trypsinized using 0.25 ml 0.05% Trypsin with EDTA (Invitrogen) for 5 minutes to detach from the plate, mixed with 0.75 ml of culture media, and counted using a hemocytometer.
Starting cell numbers were 15,000.

[2] = Physical stability of amorphous material; type: physicochemical
Method: Amorphous material crystallized to Form A upon exposure to either elevated temperature (within 4 days at 60° C.) or humidity (within 12 days at 75% RH).

[3] = Physical stability of Form B (desolvation); type: physicochemical
Method: The physical stability of Form B was investigated. […] Vacuum at 70° C.

[4] = Disproportionation of salts in water slurry; type: physicochemical
Text: The possibility of disproportionation in water was investigated. […] The excess solids were recovered and reanalyzed by XRPD for evidence of freebase or benzenesulfonic acid.
The possibility of disproportionation in water was investigated. […] The excess solids were recovered and reanalyzed by XRPD for evidence of freebase or naphthalene-2-sulfonic acid.

[5] = Plasma concentration of SRR G-1 in rats after oral dosing (LC-MS/MS); type: in vivo; conditions: rat, PO 10 mg/kg, individual animals (R1-R9)
Text: The results are shown in Tables 22-24 for each respectively.

[6] = Approximate solubility of SRR G-1 Form A in solvents; type: physicochemical
[7] = Dynamic Vapor Sorption/Desorption (DVS); type: physicochemical
Text: The weight change through the sorption/desorption cycle was less than 0.3% weight. Hysteresis was not observed. The material recovered from the Dynamic Vapor Sorption experiment was Form A by XRPD.
Moisture sorption/desorption data were collected on a VTI SGA-100 Vapor Sorption Analyzer. NaCl and PVP were used as calibration standards. Samples were not dried prior to analysis. Sorption and desorption data were collected over a range from 5% to 95% RH at 10% RH increments under a nitrogen purge. The equilibrium criterion used for analysis was less than 0.0100% weight change in 5 minutes with a maximum equilibration time of 3 hours. Data were not corrected for the initial moisture content of the samples.

[8] = Solubility measurement in pH buffers; type: physicochemical; conditions: 37° C., 24 hrs; for solubility at 24 h: aqueous buffer, thermodynamic from solid, read-out: Solubility; for Form Conversion: XRPD of residual solids
[9] = Kinetic solubility measurement in bio-relevant media; type: physicochemical; conditions: 37° C.; for Form Change: SGF; for solubility at 1 h / solubility at 2 h / solubility at 4 h / solubility at 24 h: thermodynamic from solid

Compound: CC(=O)c1ccc2c(c1)[C@@H]1C=CC[C@@H]1[C@H](c1cc3c(cc1Br)OCO3)N2 (racemic) [Racemic G-1, (±)1-(4-(6-bromobenzo[d][1,3]dioxol-5-yl)-(3 aS*,4R*,9bR*)-tetrahydro-3H-cyclopenta[c]quinolin-8-yl)ethan-1-one, reference compound]
doubling compared with that seen with the vehicle ([1]; 4 days): about half | Doublings ([1]; 4 days, starting cell number 15,000): 3.4 | cell count after 4 days of growth (single replicates) ([1]; starting cell number 15,000, 5 replicates): 16 tens of thousands and 18 tens of thousands and 19 tens of thousands and 17 tens of thousands and 24 tens of thousands | average cell count after 4 days of growth ([1]; starting cell number 15,000, average of 5 replicates): 18.8 tens of thousands

Compound: CC(=O)c1ccc2c(c1)[C@@H]1C=CC[C@@H]1[C@H](c1cc3c(cc1Br)OCO3)N2 [Amorphous material]
time to crystallization to Form A ([2]; elevated temperature, 60° C.): ≤ 4 days | time to crystallization to Form A ([2]; humidity, 75% RH): ≤ 12 days

Compound: CC(=O)c1ccc2c(c1)[C@@H]1C=CC[C@@H]1[C@H](c1cc3c(cc1Br)OCO3)N2 [Form B, 1-((3aS,4R,9bR)-4-(6-bromobenzo[d][1,3]dioxol-5-yl)-3a,4,5,9b-tetrahydro-3H-cyclopenta[c]quinolin-8-yl)ethan-1-one]
desolvation ([3]; exposure to 90 to 100° C. for 25 minutes): Almost complete desolvation | desolvation ([3]; exposure to 120° C.): Complete desolvation to Form C | desolvation ([3]; vacuum at 70° C. (or below)): not sufficient for desolvation to occur

Now from value to molecule, other results behind:

disproportionation in water ([4]; slurried in water for 4 days, XRPD of recovered solids): disproportionation did not occur | Plasma Conc. ([5]; time 0.500 h): 39.2 ng/mL and 35.2 ng/mL and 34.1 ng/mL | Plasma Conc. ([5]; time 1.00 h): 43.9 ng/mL and 42.0 ng/mL and 44.5 ng/mL | Plasma Conc. ([5]; time 2.00 h): 28.5 ng/mL and 30.6 ng/mL and 32.3 ng/mL | Plasma Conc. ([5]; time 4.00 h): 20.0 ng/mL and 16.7 ng/mL and 19.5 ng/mL | Plasma Conc. ([5]; time 8.00 h): 8.17 ng/mL and 5.78 ng/mL and 6.18 ng/mL
Compound: CC(=O)c1ccc2c(c1)[C@@H]1C=CC[C@@H]1[C@H](c1cc3c(cc1Br)OCO3)N2.O=S(=O)(O)c1ccccc1 [SRR G-1 Besylate Form A]
Plasma Conc. ([5]; time 24.0 h, LLOQ 0.100 ng/mL): 0.837 ng/mL and 0.668 ng/mL and 0.647 ng/mL

solubility ([6]; oil or lipid, sesame oil): 2000 µg/mL (≈ 4850 µM) | solubility ([6]; organic solvent or mixture, ACN): 24000 µg/mL (≈ 58200 µM) | solubility ([6]; organic solvent or mixture, DCM): > 89000 µg/mL | solubility ([6]; organic solvent or mixture, DMSO): > 203000 µg/mL | solubility ([6]; organic solvent or mixture, EtOAc): > 65000 µg/mL | solubility ([6]; organic solvent or mixture, EtOH): 7000 µg/mL (≈ 17000 µM) | solubility ([6]; organic solvent or mixture, IPA): 4000 µg/mL (≈ 9700 µM) | solubility ([6]; organic solvent or mixture, MeOH): 6000 µg/mL (≈ 14600 µM) | solubility ([6]; organic solvent or mixture, THF): > 67000 µg/mL | solubility ([6]; organic solvent or mixture, acetone): > 122000 µg/mL | solubility ([6]; organic solvent or mixture, diethyl ether): 8000 µg/mL (≈ 19400 µM) | solubility ([6]; organic solvent or mixture, toluene): 40000 µg/mL (≈ 97000 µM) | solubility ([6]; water): < 2000 µg/mL | hygroscopicity ([7]; DVS isotherm): low hygroscopicity | weight change through the sorption/desorption cycle ([7]; DVS, 5% to 95% RH): less than 0.3 % weight | solubility at 24 h ([8]; pH 2.0 buffer): < 0.72 µg/mL | solubility at 24 h ([8]; pH 3.0 buffer): < 0.72 µg/mL | solubility at 24 h ([8]; pH 4.0 buffer): < 0.72 µg/mL | solubility at 24 h ([8]; pH 5.0 buffer): < 0.72 µg/mL | solubility at 24 h ([8]; pH 6.0 buffer): < 0.72 µg/mL | solubility at 24 h ([8]; pH 7.0 buffer): < 0.72 µg/mL | solubility at 24 h ([8]; pH 8.0 buffer): < 0.72 µg/mL | Form Conversion ([8]; pH 2.0 buffer): No | Form Conversion ([8]; pH 3.0 buffer): No | Form Conversion ([8]; pH 4.0 buffer): No | Form Conversion ([8]; pH 5.0 buffer): No | Form Conversion ([8]; pH 6.0 buffer): No | Form Conversion ([8]; pH 7.0 buffer): No | Form Conversion ([8]; pH 8.0 buffer): No | FC (Form Change) ([9]; FaSSIF, 1 h): No | FC (Form Change) ([9]; FaSSIF, 2 h): No | FC (Form Change) ([9]; FaSSIF, 4 h): No | FC (Form Change) ([9]; FaSSIF, 24 h): No | FC (Form Change) ([9]; FeSSIF, 1 h): No | FC (Form Change) ([9]; FeSSIF, 2 h): No | FC (Form Change) ([9]; FeSSIF, 4 h): No | FC (Form Change) ([9]; FeSSIF, 24 h): No | Form Change ([9]; 1 h): No | Form Change ([9]; 2 h): No | Form Change ([9]; 4 h): No | Form Change ([9]; 24 h): No | solubility at 1 h ([9]; simulated gastric fluid, SGF (pH 1.8), 1 h): 5.9 µg/mL (≈ 14.3 µM) | solubility at 2 h ([9]; simulated gastric fluid, SGF (pH 1.8), 2 h): 6.2 µg/mL (≈ 15 µM) | solubility at 4 h ([9]; simulated gastric fluid, SGF (pH 1.8), 4 h): 6.6 µg/mL (≈ 16 µM) | solubility at 24 h ([9]; simulated gastric fluid, SGF (pH 1.8), 24 h): 5.7 µg/mL (≈ 13.8 µM) | solubility at 1 h ([9]; FaSSIF (pH 6.5), 1 h): 7.1 µg/mL (≈ 17.2 µM) | solubility at 2 h ([9]; FaSSIF (pH 6.5), 2 h): 6.8 µg/mL (≈ 16.5 µM) | solubility at 4 h ([9]; FaSSIF (pH 6.5), 4 h): 7.1 µg/mL (≈ 17.2 µM) | solubility at 24 h ([9]; FaSSIF (pH 6.5), 24 h): 7.3 µg/mL (≈ 17.7 µM) | solubility at 1 h ([9]; FeSSIF (pH 5.0), 1 h): 36 µg/mL (≈ 87.3 µM) | solubility at 2 h ([9]; FeSSIF (pH 5.0), 2 h): 37 µg/mL (≈ 89.7 µM) | solubility at 4 h ([9]; FeSSIF (pH 5.0), 4 h): 38 µg/mL (≈ 92.2 µM) | solubility at 24 h ([9]; FeSSIF (pH 5.0), 24 h): 37 µg/mL (≈ 89.7 µM)
Compound: CC(=O)c1ccc2c(c1)[C@@H]1C=CC[C@@H]1[C@H](c1cc3c(cc1Br)OCO3)N2 [SRR G-1 Form A, 1-((3aS,4R,9bR)-4-(6-bromobenzo[d][1,3]dioxol-5-yl)-3a,4,5,9b-tetrahydro-3H-cyclopenta[c]quinolin-8-yl)ethan-1-one]

disproportionation in water ([4]; slurried in water for 5 days, XRPD of recovered solids (freebase Form A recovered)): disproportionation occurred | Plasma Conc. ([5]; time 0.500 h): 62.2 ng/mL and 50.6 ng/mL and 22.6 ng/mL | Plasma Conc. ([5]; time 1.00 h): 81.9 ng/mL and 67.5 ng/mL and 33.2 ng/mL | Plasma Conc. ([5]; time 2.00 h): 46.6 ng/mL and 39.9 ng/mL and 24.3 ng/mL | Plasma Conc. ([5]; time 4.00 h): 14.6 ng/mL and 14.0 ng/mL and 15.6 ng/mL | Plasma Conc. ([5]; time 8.00 h): 5.45 ng/mL and 6.09 ng/mL and 3.97 ng/mL
Compound: CC(=O)c1ccc2c(c1)[C@@H]1C=CC[C@@H]1[C@H](c1cc3c(cc1Br)OCO3)N2.O=S(=O)(O)c1ccc2ccccc2c1 [SRR G-1 Napsylate Form A]
Plasma Conc. ([5]; time 24.0 h, LLOQ 0.100 ng/mL): 0.641 ng/mL and 0.558 ng/mL and 0.435 ng/mL
